pKi: −log10 of the molar value.
What was measured:
[1] = target: ATR kinase (full-length ATR) (Homo sapiens (Human), UniProt Q13535); assay: ATR inhibition assay (radioactive-phosphate incorporation); format: biochemical; conditions: Ki(app), 5 nM full-length ATR, 10 μM ATP, 25° C.
In short: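 Ki(app) was fitted by non-linear regression to background-corrected initial rates. Full-length ATR (5 nM) phosphorylated 800 μM peptide using 10 μM [γ-33P]ATP at 25° C in Tris/HCl pH 7.5 buffer with MgCl2, DTT and 7% DMSO. After 10-minute compound pre-incubation and 24-hour reaction, phosphocellulose filters were scintillation counted.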

[2] = target: ATR kinase, in the presence of partner proteins ATRIP, CLK2 and TopBP1 (Homo sapiens (Human), UniProt Q13535); assay: ATR-complex inhibition assay (radioactive-phosphate incorporation); format: biochemical; conditions: Ki(app); 4 nM full-length ATR, 40 nM ATRIP, 40 nM CLK2, 600 nM TopBP1; 10 μM ATP; 25° C.
Chain of ATR kinase, in the presence of partner proteins ATRIP, CLK2 and TopBP1 (Q13535 whole entry): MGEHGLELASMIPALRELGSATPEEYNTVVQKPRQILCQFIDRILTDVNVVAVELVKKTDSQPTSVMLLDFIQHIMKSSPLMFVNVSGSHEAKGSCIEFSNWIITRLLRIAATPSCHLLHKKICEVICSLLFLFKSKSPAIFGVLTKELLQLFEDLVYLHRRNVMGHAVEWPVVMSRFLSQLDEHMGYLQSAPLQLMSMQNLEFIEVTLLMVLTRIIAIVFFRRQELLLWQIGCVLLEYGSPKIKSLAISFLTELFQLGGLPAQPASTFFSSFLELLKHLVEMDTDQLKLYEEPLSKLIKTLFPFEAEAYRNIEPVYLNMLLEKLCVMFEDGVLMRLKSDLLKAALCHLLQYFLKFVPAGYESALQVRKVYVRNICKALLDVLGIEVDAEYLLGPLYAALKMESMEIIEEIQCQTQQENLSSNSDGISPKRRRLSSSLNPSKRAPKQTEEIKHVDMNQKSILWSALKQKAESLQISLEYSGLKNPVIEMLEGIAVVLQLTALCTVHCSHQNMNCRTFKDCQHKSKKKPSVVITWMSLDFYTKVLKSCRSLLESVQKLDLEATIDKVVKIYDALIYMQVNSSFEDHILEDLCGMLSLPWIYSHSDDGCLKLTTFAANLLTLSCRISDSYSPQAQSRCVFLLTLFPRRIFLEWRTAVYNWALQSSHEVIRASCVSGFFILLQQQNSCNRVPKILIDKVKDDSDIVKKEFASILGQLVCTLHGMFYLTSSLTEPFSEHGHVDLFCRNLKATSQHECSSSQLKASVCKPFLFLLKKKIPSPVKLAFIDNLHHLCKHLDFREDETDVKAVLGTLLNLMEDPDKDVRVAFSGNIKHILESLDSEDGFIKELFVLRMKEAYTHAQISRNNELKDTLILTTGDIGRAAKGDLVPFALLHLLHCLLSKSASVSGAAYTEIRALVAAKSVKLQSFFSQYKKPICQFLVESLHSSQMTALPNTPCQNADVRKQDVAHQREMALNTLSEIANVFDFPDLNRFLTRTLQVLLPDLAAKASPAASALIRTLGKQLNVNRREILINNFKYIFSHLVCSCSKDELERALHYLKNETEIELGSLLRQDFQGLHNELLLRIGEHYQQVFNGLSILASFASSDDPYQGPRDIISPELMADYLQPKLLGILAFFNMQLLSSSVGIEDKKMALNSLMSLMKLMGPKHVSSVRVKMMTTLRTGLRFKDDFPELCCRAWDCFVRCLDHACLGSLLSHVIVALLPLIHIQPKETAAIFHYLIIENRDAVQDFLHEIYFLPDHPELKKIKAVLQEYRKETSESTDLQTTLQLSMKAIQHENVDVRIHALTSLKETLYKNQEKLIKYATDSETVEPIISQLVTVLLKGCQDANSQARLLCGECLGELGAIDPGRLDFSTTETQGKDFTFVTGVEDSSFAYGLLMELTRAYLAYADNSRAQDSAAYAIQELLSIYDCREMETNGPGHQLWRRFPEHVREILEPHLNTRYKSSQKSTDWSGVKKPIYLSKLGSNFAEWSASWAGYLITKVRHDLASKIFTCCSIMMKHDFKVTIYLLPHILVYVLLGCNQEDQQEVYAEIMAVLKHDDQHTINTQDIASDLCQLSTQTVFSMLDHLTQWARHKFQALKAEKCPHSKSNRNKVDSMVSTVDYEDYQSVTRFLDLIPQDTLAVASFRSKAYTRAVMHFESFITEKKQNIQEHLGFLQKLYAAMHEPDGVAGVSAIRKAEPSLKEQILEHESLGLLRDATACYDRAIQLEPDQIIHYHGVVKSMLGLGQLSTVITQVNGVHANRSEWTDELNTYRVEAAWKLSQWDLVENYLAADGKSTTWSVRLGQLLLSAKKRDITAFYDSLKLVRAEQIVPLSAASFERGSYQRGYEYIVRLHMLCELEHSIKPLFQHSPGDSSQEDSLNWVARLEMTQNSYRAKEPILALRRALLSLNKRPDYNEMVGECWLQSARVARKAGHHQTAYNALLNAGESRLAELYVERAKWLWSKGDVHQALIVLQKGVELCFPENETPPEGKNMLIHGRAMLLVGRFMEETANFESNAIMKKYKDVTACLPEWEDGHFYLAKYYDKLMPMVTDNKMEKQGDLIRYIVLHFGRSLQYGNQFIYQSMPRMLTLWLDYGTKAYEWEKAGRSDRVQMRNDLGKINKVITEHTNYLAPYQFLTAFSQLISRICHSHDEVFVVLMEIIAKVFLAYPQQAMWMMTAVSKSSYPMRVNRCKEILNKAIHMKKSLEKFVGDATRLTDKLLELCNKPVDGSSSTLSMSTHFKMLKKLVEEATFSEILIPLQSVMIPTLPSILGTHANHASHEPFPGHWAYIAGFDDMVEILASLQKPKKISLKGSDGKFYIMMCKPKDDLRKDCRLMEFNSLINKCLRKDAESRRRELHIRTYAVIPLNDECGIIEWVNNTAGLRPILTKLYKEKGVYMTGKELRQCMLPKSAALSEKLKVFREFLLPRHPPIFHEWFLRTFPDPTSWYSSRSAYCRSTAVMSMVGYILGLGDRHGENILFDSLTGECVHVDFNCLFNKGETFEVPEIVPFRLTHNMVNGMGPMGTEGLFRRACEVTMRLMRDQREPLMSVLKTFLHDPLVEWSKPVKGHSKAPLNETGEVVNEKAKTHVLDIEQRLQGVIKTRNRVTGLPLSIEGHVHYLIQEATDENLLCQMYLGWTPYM
Chain of ATR kinase, in the presence of partner proteins ATRIP, CLK2 and TopBP1 (Q8WXE1 whole entry partner): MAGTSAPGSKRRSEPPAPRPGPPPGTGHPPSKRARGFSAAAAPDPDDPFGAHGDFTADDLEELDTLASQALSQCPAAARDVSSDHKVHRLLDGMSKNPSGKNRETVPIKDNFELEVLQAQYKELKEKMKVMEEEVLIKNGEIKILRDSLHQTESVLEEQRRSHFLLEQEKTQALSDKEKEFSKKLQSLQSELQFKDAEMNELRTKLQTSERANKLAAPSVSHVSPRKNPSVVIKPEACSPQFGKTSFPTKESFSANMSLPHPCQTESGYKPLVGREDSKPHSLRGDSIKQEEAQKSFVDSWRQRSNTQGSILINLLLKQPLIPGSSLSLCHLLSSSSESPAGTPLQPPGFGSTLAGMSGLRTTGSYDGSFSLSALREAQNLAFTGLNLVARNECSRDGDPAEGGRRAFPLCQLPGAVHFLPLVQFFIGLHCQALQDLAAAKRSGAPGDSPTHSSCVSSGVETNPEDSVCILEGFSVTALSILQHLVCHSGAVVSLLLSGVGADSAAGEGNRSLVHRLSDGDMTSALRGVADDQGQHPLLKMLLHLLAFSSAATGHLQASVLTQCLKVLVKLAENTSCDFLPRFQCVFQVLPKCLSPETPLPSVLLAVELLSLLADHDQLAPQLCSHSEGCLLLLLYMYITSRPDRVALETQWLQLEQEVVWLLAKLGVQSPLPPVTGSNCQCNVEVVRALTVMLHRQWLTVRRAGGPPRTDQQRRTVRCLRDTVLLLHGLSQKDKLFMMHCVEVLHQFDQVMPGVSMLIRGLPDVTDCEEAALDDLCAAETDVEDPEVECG
Method: Compounds were screened for their ability to inhibit ATR kinase, in the presence of partner proteins ATRIP, CLK2 and TopBP1, using a radioactive-phosphate incorporation assay. Assays were carried out in a mixture of 50 mM Tris/HCl (pH 7.5), 10 mM MgCl2 and 1 mM DTT. Final substrate concentrations were 10 μM [g-33P]ATP (3.5 μCi 33P ATP/nmol ATP, Perkin Elmer, Massachusetts, USA) and 800 μM target peptide ([…]) (SEQ ID NO: 1); Isca Biochemicals, Cambridgeshire, UK).
Assays were carried out at 25° C. in the presence of 4 nM full-length ATR, 40 nM full-length ATRIP, 40 nM full-length CLK2 and 600 nM TopBP1 (A891-S1105). An enzyme stock buffer solution was prepared containing all of the reagents listed above, with the exception of target peptide, ATP and the test compound of interest. This enzyme stock was pre-incubated for 30 minutes at 25° C. 8.5 μL of the enzyme stock solution was placed in a 96-well plate followed by addition of 5 μl of target peptide and 2 μL of DMSO stock containing serial dilutions of the test compound (typically starting from a final concentration of 1.5 μM with 2.5-fold serial dilutions) in duplicate (final DMSO concentration 7%). The plate was pre-incubated for 10 minutes at 25° C. and the reaction initiated by addition of 15 μL [g-33P]ATP (final concentration 10 μM).
The reaction was stopped after […] by the addition of 30 μL 0.3 M phosphoric acid containing 2 mM ATP. A phosphocellulose filter 96-well plate (Multiscreen HTS MAPHNOB50, Merck-Millipore, Massachusetts, USA) was pretreated with 100 μL 0.1 M phosphoric acid prior to the addition of 45 μL of the stopped assay mixture. The plate was washed with 5×200 μL 0.1 M phosphoric acid. After drying, 50 μL Optiphase ‘SuperMix’ liquid scintillation cocktail (Perkin Elmer, Massachusetts, USA) was added to the well prior to scintillation counting (Wallac 1450 Microbeta Liquid Scintillation Counter, Perkin Elmer, Massachusetts, USA).
After removing mean background values for all of the data points, Ki(app) data were calculated from non-linear regression analysis of the initial rate data using the Prism software package (GraphPad Prism version 6.0c for Macintosh, GraphPad Software Inc., San Diego, USA).
Compounds with a Cisplatin sensitization value of <0.02 μM are marked with “+++.” Compounds with a Ki value >0.02 μM but <0.2 μM are marked with “++.” Compounds with a Ki value >0.2 μM but <5 μM are marked with “+.”

[3] = system: HCT116 colorectal cancer cells; assay: Cisplatin sensitization assay, 96 h cell viability (MTS); format: cell-based; conditions: 96 h MTS, concentration of compound required to reduce the IC50 of Cisplatin
Method: Compounds can be screened for their ability to sensitize HCT116 colorectal cancer cells to Cisplatin using a 96 h cell viability (MTS) assay. […] Compounds and Cisplatin are then both added simultaneously to the cell media in 2-fold serial dilutions from a top final concentration of 10 μM as a full matrix of concentrations in a final cell volume of 200 μl, and the cells are then incubated at 37° C. in 5% CO2. After 96 h, 40 μl of MTS reagent (Promega G358a) is added to each well and the cells are incubated for 1 h at 37° C. in 5% CO2.
Compounds with a Cisplatin sensitization value of <0.02 μM are marked with “+++.” Compounds with a Cisplatin sensitization value >0.02 μM but <0.2 μM are marked with “++.” Compounds with a Cisplatin sensitization value >0.2 μM but <5 μM are marked with “+.”

Chain of ATR kinase (full-length ATR) (Q13535 whole entry): as the sequence (Q13535 whole entry) above

pKi [1]	pKi [2]	SMILES	Cisplatin Sensitization Assay [3]
6.00 to 8.00	> 7.70	Nc1nn2cc(F)cnc2c1C(=O)Nc1cncc(F)c1N1CCN2C(=O)CC[C@@H]2C1 [I-N-186, (R)-2-amino-6-fluoro-N-(5-fluoro-4-(6-oxohexahydropyrrolo[1,2-a]pyrazin-2(1H)-yl)pyridin-3-yl)pyrazolo[1,5-a]pyrimidine-3-carboxamide]	
5.30 to 6.00		CNCCCN(C)C(=O)C1CCN(c2c(F)cncc2NC(=O)c2c(N)nn3cc(F)cnc23)CC1 [I-G-17]	+ (Compounds with a Cisplatin sensitization value >0.2 μM but <5 μM are marked with “+.”)

Source: patent publication US10392391B2 (Vertex Pharmaceuticals Incorporated, priority 2012, dated 2019)
